Test results as given in patent US9783488B2 (CHDI Foundation, Inc., priority 2013, dated 2017).

Experiments:
[1] = test system: cellular histone deacetylase enzymatic activity in Jurkat E6-1 cells; experiment: Inhibition of cellular HDAC activity in Jurkat E6-1 cells, fluorogenic substrate Boc-Lys(Tfa)-AMC; assay type: cell-based; details: Homo sapiens, read-out: Cell IC50
In short: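 Jurkat E6.1 cells (75,000/well) were pre-treated with compound for 2 h at 37 °C, then given Boc-Lys(Tfa)-AMC (5× stock 500 μM) for 3 h. Cells were lysed with trypsin-containing buffer overnight, and released AMC fluorescence was read at Ex 355/Em 460 nm over a 16-point dilution series.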

[2] = biological target: human catalytic domain HDAC4 protein (amino acids 648-1032) (Homo sapiens (Human), UniProt P56524); experiment: Inhibition of HDAC4 catalytic domain enzymatic activity, fluorogenic substrate Boc-Lys(Tfa)-AMC; details: HDAC4 catalytic domain enzyme, read-out: Biochemical HDAC4 IC50
Chain of human catalytic domain HDAC4 protein (amino acids 648-1032) (P56524 648-1032): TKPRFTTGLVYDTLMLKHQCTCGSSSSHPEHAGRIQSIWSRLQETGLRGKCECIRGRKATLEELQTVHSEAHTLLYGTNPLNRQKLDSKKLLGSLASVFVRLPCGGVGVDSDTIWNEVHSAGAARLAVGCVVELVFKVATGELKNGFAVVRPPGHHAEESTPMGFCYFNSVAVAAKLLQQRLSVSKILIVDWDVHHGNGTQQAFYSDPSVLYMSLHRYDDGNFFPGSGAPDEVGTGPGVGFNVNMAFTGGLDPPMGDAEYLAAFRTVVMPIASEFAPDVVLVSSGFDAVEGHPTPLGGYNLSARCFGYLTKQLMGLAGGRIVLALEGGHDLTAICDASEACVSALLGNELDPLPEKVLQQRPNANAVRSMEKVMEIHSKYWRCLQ

IC50 [1]	IC50 [2]	Structure (SMILES)
59 nM	55 nM	Cc1c(F)cccc1[C@]1(C(=O)NO)CC[C@@H](c2ccc3cnn(C)c3c2F)C1 (relative stereo) [Example 83, (1S,3R*)-3-(7-Fluoro-1-methyl-1H-indazol-6-yl)-1-(3-fluoro-2-methylphenyl)-N-hydroxycyclopentanecarboxamide]
180 nM	48 nM	Cc1c(F)cccc1[C@]1(C(=O)NO)CC[C@H](c2ccc3ncccc3c2)C1 (relative stereo) [Example 84, (1S,3S*)-1-(3-Fluoro-2-methylphenyl)-N-hydroxy-3-(quinolin-6-yl)cyclopentanecarboxamide]
120 nM	62 nM	Cc1c(F)cccc1[C@]1(C(=O)NO)CC[C@@H](c2ccc3ncccc3c2)C1 (relative stereo) [Example 85, (1 S,3R*)-1-(3-Fluoro-2-methylphenyl)-N-hydroxy-3-(quinolin-6-yl)cyclopentanecarboxamide]
24000 nM	2500 nM	Cc1c(F)cccc1[C@]1(C(=O)NO)CC[C@H](N2CCOCC2)C1 (relative stereo) [Example 90, (1S,3S*)-1-(3-Fluoro-2-methylphenyl)-N-hydroxy-3-morpholinocyclopentanecarboxamide]
1280 nM	150 nM	Cc1c(F)cccc1[C@]1(C(=O)NO)CC[C@H](c2cncc(F)c2)C1 (stereo in doubt) [Example 9, (1S,3S*)-1-(3-fluoro-2-methyl-phenyl)-3-(5-fluoropyridin-3-yl)-N-hydroxycyclopentanecarboxamide]
1390 nM	140 nM	Cc1c(F)cccc1[C@]1(C(=O)NO)CC[C@@H](c2cncc(F)c2)C1 (stereo in doubt) [Example 10, (1S,3R*)-1-(3-fluoro-2-methyl-phenyl)-3-(5-fluoropyridin-3-yl)-N-hydroxycyclopentanecarboxamide]
8400 nM	720 nM	Cc1c(F)cccc1[C@@]1(C(=O)NO)CC[C@H](c2cncc(F)c2)C1 (stereo in doubt) [Example 39, (1R,3S*)-1-(3-fluoro-2-methylphenyl)-3-(5-fluoropyridin-3-yl)-N-hydroxycyclopentanecarboxamide]
8400 nM	3600 nM	Cc1c(F)cccc1[C@@]1(C(=O)NO)CC[C@@H](c2cncc(F)c2)C1 (stereo in doubt) [Example 40, (1R,3R*)-1-(3-fluoro-2-methylphenyl)-3-(5-fluoropyridin-3-yl)-N-hydroxycyclopentanecarboxamide]
1230 nM	190 nM	Cc1c(F)cccc1C1(C(=O)NO)CCC(c2cccnc2)C1 (stereo not shown) [Example 1, 1-(3-fluoro-2-methylphenyl)-N-hydroxy-3-(pyridin-3-yl)cyclopentanecarboxamide]
48800 nM	6400 nM	O=C(NO)[C@]1(c2ccccc2)CC[C@@H](c2cncc(F)c2)CC1 [Example 13, (1 r,4r)-4-(5-fluoropyridin-3-yl)-N-hydroxy-1-phenylcyclohexanecarboxamide]
> 50000 nM	> 50000 nM	O=C(NO)[C@]1(c2ccccc2)CC[C@H](c2cncc(F)c2)CC1 [Example 14, (1s,4s)-4-(5-fluoropyridin-3-yl)-N-hydroxy-1-phenylcyclohexanecarboxamide]
1700 nM	270 nM	Cc1c(F)cccc1C1(C(=O)NO)CCCC1 [Example 18, 1-(3-fluoro-2-methylphenyl)-N-hydroxycyclopentanecarboxamide]
13000 nM	1900 nM	O=C(NO)[C@@]1(c2ccccc2)CC[C@@H](c2cncc(F)c2)C1 [Example 41, (1S,3R)-3-(5-fluoropyridin-3-yl)-N-hydroxy-1-phenylcyclopentanecarboxamide]
7200 nM	1400 nM	O=C(NO)[C@@]1(c2ccccc2)CC[C@H](c2cncc(F)c2)C1 [Example 42, (1S,3S)-3-(5-fluoropyridin-3-yl)-N-hydroxy-1-phenylcyclopentanecarboxamide]
610 nM	240 nM	Cc1c(F)cccc1[C@]1(C(=O)NO)CC[C@@H](c2cc(F)cnc2C2CC2)C1 [Example 43, (1S,3R)-3-(2-cyclopropyl-5-fluoropyridin-3-yl)-1-(3-fluoro-2-methylphenyl)-N-hydroxycyclopentanecarboxamide]
580 nM	150 nM	Cc1c(F)cccc1[C@]1(C(=O)NO)CC[C@@H](c2cc3c(cnn3C)cc2F)C1 [Example 81, (1S,3R)-3-(5-Fluoro-1-methyl-1H-indazol-6-yl)-1-(3-fluoro-2-methylphenyl)-N-hydroxycyclopentanecarboxamide]
1600 nM	290 nM	Cc1c(F)cccc1[C@]1(C(=O)NO)CC[C@@H](Oc2ccc3cnn(C)c3c2)C1 [Example 91, (1S,3R)-1-(3-Fluoro-2-methylphenyl)-N-hydroxy-3-((1-methyl-1H-indazol-6-yl)oxy)cyclopentanecarboxamide]

Further lines, the compound ahead of its results:

Structure (SMILES)	IC50 [1]	IC50 [2]
Cc1c(F)cccc1[C@]1(C(=O)NO)CC[C@@H](N2CCOCC2)C1 (relative stereo) [Example 89, (1S,3R*)-1-(3-fluoro-2-methylphenyl)-N-hydroxy-3-morpholinocyclopentanecarboxamide]	7300 nM	1100 nM
O=C(NO)C1(c2cccc(F)c2F)CCCC1 [Example 15, 1-(2,3-difluorophenyl)-N-hydroxycyclopentanecarboxamide]	18500 nM	2500 nM
O=C(NO)C1(c2cccc3c2OCC3)CCCC1 [Example 16, 1-(2,3-dihydrobenzofuran-7-yl)-N-hydroxycyclopentanecarboxamide]	> 50000 nM	> 50000 nM
Cc1c(Cl)cccc1C1(C(=O)NO)CCCC1 [Example 17, 1-(3-chloro-2-methylphenyl)-N-hydroxycyclopentanecarboxamide]	2530 nM	280 nM
O=C(NO)C1(c2ccccc2F)CCCC1 [Example 19, 1-(2-fluorophenyl)-N-hydroxycyclopentanecarboxamide]	44700 nM	4600 nM
O=C(NO)C1(c2ccc(Cl)cc2)CCCC1 [Example 20, 1-(4-chlorophenyl)-N-hydroxycyclopentanecarboxamide]	> 50000 nM	24000 nM
O=C(NO)C1(c2ccccc2)CCCC1 [Example 21, N-Hydroxy-1-phenylcyclopentanecarboxamide]	> 50000 nM	11400 nM
O=C(NO)C1(c2c(F)cccc2Cl)CCCC1 [Example 22, 1-(2-Chloro-6-fluorophenyl)-N-hydroxycyclopentanecarboxamide]	15600 nM	2500 nM
COc1ccccc1C1(C(=O)NO)CCCC1 [Example 23, N-Hydroxy-1-(2-methoxyphenyl)cyclopentanecarboxamide]	> 50000 nM	> 50000 nM
Cc1ccccc1C1(C(=O)NO)CCCC1 [Example 24, N-Hydroxy-1-o-tolylcyclopentanecarboxamide]	8120 nM	730 nM
Cc1cccc(C2(C(=O)NO)CCCC2)c1 [Example 25, N-Hydroxy-1-m-tolylcyclopentanecarboxamide]	43700 nM	8200 nM
O=C(NO)C1(c2ccccc2Cl)CCCC1 [Example 26, 1-(2-Chlorophenyl)-N-hydroxycyclopentanecarboxamide]	15100 nM	1900 nM
N#Cc1ccccc1C1(C(=O)NO)CCCC1 [Example 27, 1-(2-Cyanophenyl)-N-hydroxycyclopentanecarboxamide]	> 50000 nM	> 50000 nM
N#Cc1cccc(C2(C(=O)NO)CCCC2)c1 [Example 28, 1-(3-Cyanophenyl)-N-hydroxycyclopentanecarboxamide]	> 50000 nM	> 50000 nM
Cc1c(C2(C(=O)NO)CCCC2)ccc(F)c1F [Example 29, 1-(3,4-Difluoro-2-methylphenyl)-N-hydroxycyclopentanecarboxamide]	1410 nM	150 nM
Cc1c(F)cc(F)cc1C1(C(=O)NO)CCCC1 [Example 30, 1-(3,5-Difluoro-2-methylphenyl)-N-hydroxycyclopentanecarboxamide]	2630 nM	330 nM
Cc1cccc(Cl)c1C1(C(=O)NO)CCCC1 [Example 31, 1-(2-Chloro-6-methylphenyl)-N-hydroxycyclopentanecarboxamide]	8100 nM	910 nM
CCc1ccccc1C1(C(=O)NO)CCCC1 [Example 32, 1-(2-Ethylphenyl)-N-hydroxycyclopentanecarboxamide]	6500 nM	1100 nM
COc1cccc(C2(C(=O)NO)CCCC2)c1C(F)(F)F [Example 33, N-Hydroxy-1-(3-methoxy-2-(trifluoromethyl)phenyl)cyclopentanecarboxamide]	> 50000 nM	> 50000 nM
O=C(NO)C1(c2ccccc2C(F)(F)F)CCCC1 [Example 34, N-Hydroxy-1-(2-(trifluoromethyl)phenyl)cyclopentanecarboxamide]	46000 nM	11000 nM
Cc1cc(F)ccc1C1(C(=O)NO)CCCC1 [Example 35, 1-(4-Fluoro-2-methylphenyl)-N-hydroxycyclopentanecarboxamide]	5600 nM	570 nM
Cc1ccc(F)cc1C1(C(=O)NO)CCCC1 [Example 36, 1-(5-Fluoro-2-methylphenyl)-N-hydroxycyclopentanecarboxamide]	7500 nM	830 nM
Cc1cccc(F)c1C1(C(=O)NO)CCCC1 [Example 37, 1-(2-Fluoro-6-methylphenyl)-N-hydroxycyclopentanecarboxamide]	12000 nM	1500 nM
O=C(NO)C1(c2cccc3ccsc23)CCCC1 [Example 38, 1-(Benzo[b]thiophen-7-yl)-N-hydroxycyclopentanecarboxamide]	4600 nM	610 nM
